Results reported in patent publication US20190388441A1, “NOVEL PRODRUGS OF MIZORIBINE” (KATHOLIEKE UNIVERSITEIT LEUVEN, priority 2017, published 2019).
Read-outs that look alike come from different tables or passages of the source.

Key:
IMPDH (E. coli) = IMPDH (E. coli) (Escherichia coli, UniProt P0ADG7); conditions: lower end of the range; cited from earlier work
hlMPDH1 = hlMPDH1 (Homo sapiens, UniProt P20839); conditions: upper end of the range; cited from earlier work
[1] = system: heart grafts from Balb/c donors in C57BL/6 recipient mice; test: heart allograft survival in mice (heterotopic heart transplantation); format: in vivo
Description: Synergy of Mizoribine Prodrugs with FK506 to Prolong Heart Allograft Survival in Mice
Heterotopic hear transplantation was performed by placing heart grafts from Balb/c donors to the neck of C57BL/6 recipient mice using micro-suture technology, in which the aorta and pulmonary artery of the graft were connected to carotid artery and jugular vein, respectively. The function of grafts was monitored by daily inspection and palpation. Rejection was determined by cessation of graft beating and confirmed by histology.

DBA-1 mice with CIA = test: chicken collagen type II induced rheumatoid arthritis (CIA) in DBA-1 mice; format: in vivo; conditions: monotherapy at given doses, 30 day-treatment
Excerpt: Results of example 67 showing disease score in DBA-1 mice with CIA after a 30 day-treatment with the Mizoribine prodrug of example 19 alone and in combination with MMF or Mizoribine.
Example 67: Synergy of the Prodrug of Example 19 with MMF or Mizoribine in Treatment of DBA-1 Mice with Chicken Collagen Type II Induced Rheumatoid Arthritis (CIA)

IL-2 production = test: suppression of IL-2 production in anti-CD3 antibody stimulated mice in vivo; design: species or system Balb/c mice; conditions: Mus musculus; for inhibition at 25 mg/kg: 25 mpk PO; for inhibition at 55 mg/kg: 55 mpk PO; for inhibition at 65 mg/kg: 65 mpk PO; for inhibition at 40 mg/kg: 40 mpk PO; for inhibition at 50 mg/kg: 50 mpk PO
Description: Mizoribine prodrug-induced suppression of IL-2 production in anti-CD3 antibody stimulated mice in vivo.
Inbreed Balb/c mice, male, 8-10 week old, were pre-treated with Mycophenolate mofetil (MMF), Mizoribine and Mizoribine prodrugs at the different time intervals before anti-mouse CD3 antibody injection IP (1 μg per mouse). The doses of the prodrugs of examples 19, 40 and 48 were equal to Mizoribine on the bases of molecular weight. Four hours after anti-CD3 antibody stimulation, a volume of 100 μl peripheral blood was taken by eye puncture and serum IL-2 was quantified by FACS-beads technology. Briefly, an aliquot of 10 μl of serum was incubated with anti-mouse IL-2 antibody coated microbeads at 4° C. for 30 min. After washing twice with cold PBS, the beads were incubated with biotin-conjugated anti-mouse IL-2 antibody at 4° C. for 30 min. After washing twice with cold PBS, The beads were incubated with PE-conjugated avidin at 4° C. for 30 min. After washing twice with cold PBS, the samples were analyzed by flow cytometry. Results were expressed as mean of 2 mice in each group.

Balb/c mice = test: subacute toxicity assay; format: in vivo; conditions: Day 0-14, n = 6
Description: Reduction of Toxicity by Combination of Ex19 and MZR Subacute Toxicity Assay
Balb/c mice were treated with MZR at 100 mpk PO or Ex19 at equal molecule dose to MZR from day 0-14.

[2] = given 1 hour before anti-CD3, mean of 2 mice, read-out: % inhibition of IL-2, 1 hour post administration
[3] = given 4 hours before anti-CD3, mean of 2 mice, read-out: % inhibition of IL-2, 4 hour post administration
[4] = given 8 hours before anti-CD3, mean of 2 mice, read-out: % inhibition of IL-2, 8 hour post administration
[5] = 1 to 8 hours post administration, read-out: inhibition of IL-2, range up to 8 hours post administration

IMPDH (E. coli), sequence (P0ADG7 whole entry): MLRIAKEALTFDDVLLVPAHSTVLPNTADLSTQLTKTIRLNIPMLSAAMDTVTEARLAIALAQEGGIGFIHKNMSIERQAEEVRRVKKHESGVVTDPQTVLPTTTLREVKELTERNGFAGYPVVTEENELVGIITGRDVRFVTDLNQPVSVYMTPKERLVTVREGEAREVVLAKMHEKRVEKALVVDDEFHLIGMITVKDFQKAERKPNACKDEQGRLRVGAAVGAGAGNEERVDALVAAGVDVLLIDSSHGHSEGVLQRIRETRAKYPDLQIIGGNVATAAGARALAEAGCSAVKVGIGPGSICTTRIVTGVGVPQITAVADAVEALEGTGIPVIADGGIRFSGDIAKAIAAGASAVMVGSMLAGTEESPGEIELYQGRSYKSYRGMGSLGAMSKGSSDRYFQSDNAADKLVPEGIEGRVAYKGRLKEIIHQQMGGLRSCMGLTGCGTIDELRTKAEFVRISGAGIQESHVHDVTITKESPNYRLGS
hlMPDH1, sequence (P20839 whole entry): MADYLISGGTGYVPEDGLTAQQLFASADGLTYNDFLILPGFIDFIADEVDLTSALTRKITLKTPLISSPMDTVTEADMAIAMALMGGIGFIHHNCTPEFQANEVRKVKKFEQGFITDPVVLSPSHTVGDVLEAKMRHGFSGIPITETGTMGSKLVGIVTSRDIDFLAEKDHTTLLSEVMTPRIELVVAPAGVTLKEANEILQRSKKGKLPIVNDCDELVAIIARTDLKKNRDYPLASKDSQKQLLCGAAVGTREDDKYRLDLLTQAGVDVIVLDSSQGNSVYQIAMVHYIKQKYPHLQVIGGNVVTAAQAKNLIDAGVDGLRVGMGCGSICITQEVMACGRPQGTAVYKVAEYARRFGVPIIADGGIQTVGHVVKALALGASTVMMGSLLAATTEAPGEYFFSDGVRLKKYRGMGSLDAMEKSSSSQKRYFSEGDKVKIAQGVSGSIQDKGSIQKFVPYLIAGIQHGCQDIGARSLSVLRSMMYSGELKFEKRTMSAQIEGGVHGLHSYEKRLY

Q: With NC(=O)c1ncn([C@@H]2O[C@H](COP(=O)(O)O)[C@@H](O)[C@H]2O)c1O [mizoribine-5′-monophosphate] as the compound, how does the Ki (IMPDH (E. coli)) read?
A: Its Ki is 0.5 nM.

Q: What about the Ki (hlMPDH1) of the same compound?
A: The Ki was 8 nM.

Q: What does the source list for NC(=O)c1ncn([C@@H]2O[C@H](CO)[C@@H](O)[C@H]2O)c1O [Mizoribine]?
A: MST (median survival time) ± SD ([1]; MZR 50 mpk PO, d 0 to d 14): 8 ± 1.2 days; MST (median survival time) ± SD ([1]; MZR 50 mpk PO, d 0 to d 14, listed as MZR): 8 ± 1.2 days; suppression of disease score (DBA-1 mice with CIA): didn't show notable suppression of disease score; inhibition at 25 mg/kg (IL-2 production; [2]): 55.6%; inhibition at 25 mg/kg (IL-2 production; [3]): -8.6%; inhibition at 25 mg/kg (IL-2 production; [4]): -7.3%

Q: Which results are given for NC(=O)c1ncn(C2OC(COC(=O)[C@@H](N)CC(=O)OCc3ccccc3)C(O)C2O)c1O (stereo partly drawn) [Ex 48, Mizoribine-5′-(4-benzyl ester-L-aspartyl) ester]?
A: MST (median survival time) ± SD ([1]; 112 mpk PO, d 0 to d 14 post transplantation): 11 ± 1.0 days; MST (median survival time) ± SD ([1]; 112 mpk PO, d 0 to d 14 post transplantation, listed as example 48): 11 ± 1.0 days; inhibition at 55 mg/kg (IL-2 production; [2]): 77%; inhibition at 55 mg/kg (IL-2 production; [3]): 32.7%; inhibition at 55 mg/kg (IL-2 production; [4]): 27.7%; inhibition at 55 mg/kg (IL-2 production; [5]): 27.7 to 77%

Q: With CC(C)CCOC(=O)C[C@H](NP(=O)(OC[C@H]1O[C@@H](n2cnc(C(N)=O)c2O)[C@H](O)C1O)Oc1ccccc1)C(=O)OCCC(C)C (stereo partly drawn) [Ex 19, Mizoribine-5′-[phenyl-bis(isoamyl-L-aspartyl)]phosphate] as the compound, how does the “suppression of disease score” value (DBA-1 mice with CIA) read?
A: Its value is “didn't show notable suppression of disease score”.

Q: What about the inhibition at 65 mg/kg (IL-2 production; [2]) of the same compound?
A: Its inhibition at 65 mg/kg is 14.7%.

Q: And the inhibition at 65 mg/kg (IL-2 production; [3])?
A: The inhibition at 65 mg/kg was 18.3%.

Q: What about the inhibition at 65 mg/kg (IL-2 production; [4]) of the same compound?
A: The inhibition at 65 mg/kg was 17.5%.

Q: And the inhibition at 65 mg/kg (IL-2 production; [5])?
A: Its inhibition at 65 mg/kg is 14 to 18%.

Q: And the “n° sick animals” value (Balb/c mice; Ex19 260 mg/kg PO (equal molecule dose to MZR))?
A: Its value is 3.

Q: And the “% sickness” value (Balb/c mice; Ex19 260 mg/kg PO)?
A: Its value is 50%.

Q: For CC(C)(C)C(=O)NC(=O)c1ncn([C@@H]2O[C@H](COC(=O)C(C)(C)C)C(O)[C@H]2O)c1O (stereo partly drawn) [Ex 40, Mizoribine-5′-N-dipivalate], which “MST (median survival time) ± SD” value ([1]; 83 mpk PO, d 0 to d 14 post transplantation) is on record?
A: The value was 11 ± 0.6 days.

Q: And the “MST (median survival time) ± SD” value ([1]; 83 mpk PO, d 0 to d 14 post transplantation, listed as Example 40)?
A: The value was 11 ± 0.6 days.

Q: And the “MST (median survival time) ± SD” value ([1]; 83 mpk PO, d 0 to d 14 post transplantation, listed as example 40)?
A: Its value is 11 ± 0.6 days.

Q: And the inhibition at 40 mg/kg (IL-2 production; [2])?
A: The inhibition at 40 mg/kg was 19.4%.

Q: What about the inhibition at 40 mg/kg (IL-2 production; [3]) of the same compound?
A: Its inhibition at 40 mg/kg is 64.4%.

Q: And the inhibition at 40 mg/kg (IL-2 production; [4])?
A: The inhibition at 40 mg/kg was 61.3%.

Q: Which “MST (median survival time) ± SD” value ([1]; FK506 4 mpk IM, d 0 to d 14 post transplantation, 4 mg/kg) does the source give for C=CC[C@@H]1/C=C(\C)C[C@H](C)C[C@H](OC)[C@H]2O[C@@](O)(C(=O)C(=O)N3CCCC[C@H]3C(=O)O[C@H](/C(C)=C/[C@@H]3CC[C@@H](O)[C@H](OC)C3)[C@H](C)[C@@H](O)CC1=O)[C@H](C)C[C@@H]2OC [FK506, tacrolimus] here?
A: The value was 8 ± 1.3 days.

Q: With COc1c(C)c2c(c(O)c1C/C=C(\C)CCC(=O)OCCN1CCOCC1)C(=O)OC2 [MMF, Mycophenolate mofetil, reference compound] as the compound, how does the “MST (median survival time) ± SD” value ([1]; MMF 100 mpk PO, d 0 to d 14) read?
A: The value was 11 ± 1.2 days.

Q: What about the “suppression of disease score” value (DBA-1 mice with CIA) of the same compound?
A: Its value is “didn't show notable suppression of disease score”.

Q: What about the inhibition at 50 mg/kg (IL-2 production; given 1 hour before anti-CD3, serum IL-2 4 h after stimulation, mean of 2 mice, read-out: % inhibition of IL-2, 1 hour post administration) of the same compound?
A: Its inhibition at 50 mg/kg is 81.7%.

Q: And the inhibition at 50 mg/kg (IL-2 production; [3])?
A: The inhibition at 50 mg/kg was 52.3%.

Q: And the inhibition at 50 mg/kg (IL-2 production; [4])?
A: The inhibition at 50 mg/kg was 3.4%.
